Test results reported in patent US20100009922A1, “HYPOTENSIVE PEPTIDES FROM SOY PROTEINS AND METHOD OF PREPARATION” (priority 2008, published 2010).
Where no end group is shown, it is not given here.

target: T1, rabbit lung angiotensin converting enzyme (Oryctolagus cuniculus, UniProt P12822); experiment: ACE inhibitory activity, FAPGG substrate; assay type: biochemical; details: synthetic peptides, 37° C., 30 minutes, read-out: ACE Inhibition (IC50)
T1 construct: rabbit lung angiotensin converting enzyme (Sigma Chemical Company, St. Louis, Mo.); purchased Sigma Chemical Company, St. Louis, Mo; host or cells: rabbit lung (tissue-derived enzyme)
T1 sequence (P12822 34-1310): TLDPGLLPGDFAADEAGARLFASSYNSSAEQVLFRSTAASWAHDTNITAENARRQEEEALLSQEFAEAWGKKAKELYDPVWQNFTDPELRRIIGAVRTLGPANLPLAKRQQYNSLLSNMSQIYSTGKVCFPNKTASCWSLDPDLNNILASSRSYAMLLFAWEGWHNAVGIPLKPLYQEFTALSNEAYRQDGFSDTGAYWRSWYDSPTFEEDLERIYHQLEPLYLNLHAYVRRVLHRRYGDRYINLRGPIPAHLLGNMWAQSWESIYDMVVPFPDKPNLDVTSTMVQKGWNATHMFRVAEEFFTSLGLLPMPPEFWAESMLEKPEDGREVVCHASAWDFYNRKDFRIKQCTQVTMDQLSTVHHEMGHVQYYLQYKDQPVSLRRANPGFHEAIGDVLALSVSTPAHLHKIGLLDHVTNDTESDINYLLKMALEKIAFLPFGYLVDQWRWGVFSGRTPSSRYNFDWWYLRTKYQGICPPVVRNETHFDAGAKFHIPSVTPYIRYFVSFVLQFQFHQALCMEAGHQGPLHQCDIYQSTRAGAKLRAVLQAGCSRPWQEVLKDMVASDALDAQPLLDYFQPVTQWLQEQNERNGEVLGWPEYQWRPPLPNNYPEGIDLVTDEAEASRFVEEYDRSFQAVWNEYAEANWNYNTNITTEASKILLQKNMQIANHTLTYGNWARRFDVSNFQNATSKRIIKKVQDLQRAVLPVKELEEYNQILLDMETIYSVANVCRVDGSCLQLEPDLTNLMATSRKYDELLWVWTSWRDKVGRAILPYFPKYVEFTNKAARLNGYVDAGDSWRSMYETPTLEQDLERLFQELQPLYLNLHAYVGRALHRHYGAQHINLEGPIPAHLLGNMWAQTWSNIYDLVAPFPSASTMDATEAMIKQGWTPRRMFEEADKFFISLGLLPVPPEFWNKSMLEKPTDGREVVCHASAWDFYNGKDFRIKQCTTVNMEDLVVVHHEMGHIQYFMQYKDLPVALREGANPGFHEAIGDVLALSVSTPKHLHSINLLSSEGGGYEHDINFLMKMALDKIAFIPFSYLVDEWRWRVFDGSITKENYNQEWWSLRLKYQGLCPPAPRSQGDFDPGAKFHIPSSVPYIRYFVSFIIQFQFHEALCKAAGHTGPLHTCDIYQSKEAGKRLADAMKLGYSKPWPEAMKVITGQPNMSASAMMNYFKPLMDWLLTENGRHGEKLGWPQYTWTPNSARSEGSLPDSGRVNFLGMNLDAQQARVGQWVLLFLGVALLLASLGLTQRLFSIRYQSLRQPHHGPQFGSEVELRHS
Protocol: Angiotensin-I-converting enzyme inhibitory activity was determined using FAPGG as the substrate. A mixture containing 100 μl of 1 mM FAPGG, 20 μl of the soy peptide solution, and 80 μl of reaction solution (100 mM Tris-HCl, pH 8.3, containing 0.3 M NaCl, 10 mM ZnCl2, and 0.025 U/ml rabbit lung angiotensin converting enzyme (Sigma Chemical Company, St. Louis, Mo.)) was added to a 96-well plate. The reaction was carried out at 37° C. for 30 minutes and the absorbance of the mixture was read using a spectrophotometry set at 340 nm to determine the enzyme activity. 20 μl of distilled water was used in the place of the soy peptide solution in each assay as a negative control. The inhibitory potency (IC50) of each fraction of the soy peptides was determined from plots of percentage inhibition vs. log 10[soy peptide] (mg/L). IC50 value of Angiotensin-I-converting enzyme, defined as the amount of soy peptide that produced a 50% inhibition of ACE activity, was determined for selected fractions. Captopril was used as the positive control.

Substance | IC50 [µM]
IPRPRPRP [IP-8, IPRPRPRP] | 7.2 ± 1.7
LKPDNR [LR-6, LKPDNR] | 121 ± 1.7
PIPFP [PP-5, PIPFP] | 66 ± 15.3
PVNKP [PP-5-1, PVNKP] | 46.1 ± 5.2
